Measured values reported in patent publication US20240254119A1 (THIRD HARMONIC BIO, INC., priority 2022, published 2024).

Assays:
CSF-1R = target: T1, CSF-1R (Homo sapiens, UniProt P07333); experiment: Caliper biochemical assay, CSF-1R; details: Table 6
T1 construct: purchased Invitrogen PV3249 (lot 662393N)
Experimental: (§1) Enzyme, substrate, and cofactors (ATP and Mn^2+) are combined in a well of a microtiter plate and incubated for 3 hours at 25° C. At the end of the incubation, the reaction is quenched by the addition of an EDTA-containing buffer. Substrate and product are separated electrophoretically using the microfluidic-based LabChip 3000 Drug Discovery System from Caliper Life Sciences* and quantitated by fluorescence intensity.
(§2) The substrate used in the CSF-1R and PDGFRα assay is FAM-[…]-CONH2 (FAM is carboxyfluorescein). Peptide should be >95% purity. The substrate for the KIT assay is FAM-[…]-NH2.
(§3) • 1. To a well of a 384-well plate add 5 μL of 2× enzyme buffer (or control) • 2. Add 100 nL of 100× compound. • 3. Add 5 μL of 2× substrate buffer. • 4. Incubate plate at 25° C. for 3 hours. • 5. Add 10 uL of […]. • 6. Read plate LabChip 3000 Drug Discovery System
(§4) • 3 hours at 25° C. where 100% Inhibitor: No enzyme.

wtKIT [1] = target: T2, wtKIT (Homo sapiens, UniProt P10721); experiment: Caliper biochemical assay, wtKIT; details: Table 6, read-out: KIT Biochemical IC50 avg
T2 construct: 1888289AM in the reaction mixtures
How it was run: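 Enzyme (5.0 nM wtKIT), 1 μM FAM-labelled peptide, 400 μM ATP and 10 mM MnCl2 in HEPES pH 7.5 with 1% DMSO, incubated 3 h at 25° C. EDTA quench; substrate and phosphoproduct separated by microfluidic electrophoresis and quantified by fluorescence.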

PDGFRα = target: T3, PDGFRα (Homo sapiens, UniProt P16234); experiment: Caliper biochemical assay, PDGFRα; details: Table 6
T3 construct: purchased Millipore 14-467 (lot 26321_ACTI)
Experimental: as §1, §2, §3, §4

[2] = target: T4, BCRP (BCRP-MDCKII monolayer) (Homo sapiens, UniProt Q9UNQ0); experiment: MDCKII-BCRP bidirectional transport assay; type: in vitro ADME; details: for MDCK-BCRP: Papp A-B: apical to basolateral
T4 construct: host or cells: MDCKII (canine kidney) cells
T4 sequence (Q9UNQ0 1-655): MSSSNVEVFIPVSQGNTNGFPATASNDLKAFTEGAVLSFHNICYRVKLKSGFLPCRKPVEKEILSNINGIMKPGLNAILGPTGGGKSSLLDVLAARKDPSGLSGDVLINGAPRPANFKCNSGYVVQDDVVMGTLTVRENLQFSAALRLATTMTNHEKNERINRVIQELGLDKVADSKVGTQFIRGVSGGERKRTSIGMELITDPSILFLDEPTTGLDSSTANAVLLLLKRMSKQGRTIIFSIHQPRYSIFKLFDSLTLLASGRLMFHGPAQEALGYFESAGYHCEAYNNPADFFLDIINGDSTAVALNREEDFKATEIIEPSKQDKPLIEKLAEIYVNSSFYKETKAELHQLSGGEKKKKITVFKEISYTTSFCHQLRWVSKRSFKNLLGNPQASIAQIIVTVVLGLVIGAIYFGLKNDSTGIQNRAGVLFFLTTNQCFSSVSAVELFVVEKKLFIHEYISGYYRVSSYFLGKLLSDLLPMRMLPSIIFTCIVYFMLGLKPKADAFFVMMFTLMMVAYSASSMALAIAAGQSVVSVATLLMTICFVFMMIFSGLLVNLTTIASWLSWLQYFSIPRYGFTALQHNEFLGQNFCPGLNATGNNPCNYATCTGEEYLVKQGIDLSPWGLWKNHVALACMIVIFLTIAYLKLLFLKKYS
How it was run: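 Bidirectional A→B and B→A transport across PreadyPort BCRP-MDCKII monolayers (days 12–15) was run in duplicate for 120 min at 37° C, 5% CO2 after a 15 min preincubation. Compound levels were measured by LC-MS/MS. Papp and recovery were calculated, with efflux ratio indicating transporter engagement.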

Kinetic solubility assay = type: physicochemical; details: kinetic solubility, 50 mM PB (pH 7.4), shaken 24 hours at RT
How it was run: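 Test compounds from 10 mM DMSO stock were diluted in 50 mM phosphate buffer, pH 7.4, and shaken for 24 h at RT. After PTFE filtration and centrifugation, filtrate concentration was quantified by UPLC-UV/HPLC-UV against a standard curve.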

wtKIT [3] = target: T2, wtKIT; experiment: HTRF biochemical assay, wtKIT (phosphorylation of a peptide substrate); details: Table 4
How it was run: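 wtKIT (5.0 nM) phosphorylating 1 µM FAM-labelled peptide with 400 µM ATP and 10 mM MnCl2 in 100 mM HEPES pH 7.5, 1% DMSO, 3 h at 25 °C. EDTA quench; phosphopeptide detected with anti-phosphotyrosine antibody by HTRF. Enzyme titrated for 10-20% substrate conversion.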

T1 sequence (P07333 20-972): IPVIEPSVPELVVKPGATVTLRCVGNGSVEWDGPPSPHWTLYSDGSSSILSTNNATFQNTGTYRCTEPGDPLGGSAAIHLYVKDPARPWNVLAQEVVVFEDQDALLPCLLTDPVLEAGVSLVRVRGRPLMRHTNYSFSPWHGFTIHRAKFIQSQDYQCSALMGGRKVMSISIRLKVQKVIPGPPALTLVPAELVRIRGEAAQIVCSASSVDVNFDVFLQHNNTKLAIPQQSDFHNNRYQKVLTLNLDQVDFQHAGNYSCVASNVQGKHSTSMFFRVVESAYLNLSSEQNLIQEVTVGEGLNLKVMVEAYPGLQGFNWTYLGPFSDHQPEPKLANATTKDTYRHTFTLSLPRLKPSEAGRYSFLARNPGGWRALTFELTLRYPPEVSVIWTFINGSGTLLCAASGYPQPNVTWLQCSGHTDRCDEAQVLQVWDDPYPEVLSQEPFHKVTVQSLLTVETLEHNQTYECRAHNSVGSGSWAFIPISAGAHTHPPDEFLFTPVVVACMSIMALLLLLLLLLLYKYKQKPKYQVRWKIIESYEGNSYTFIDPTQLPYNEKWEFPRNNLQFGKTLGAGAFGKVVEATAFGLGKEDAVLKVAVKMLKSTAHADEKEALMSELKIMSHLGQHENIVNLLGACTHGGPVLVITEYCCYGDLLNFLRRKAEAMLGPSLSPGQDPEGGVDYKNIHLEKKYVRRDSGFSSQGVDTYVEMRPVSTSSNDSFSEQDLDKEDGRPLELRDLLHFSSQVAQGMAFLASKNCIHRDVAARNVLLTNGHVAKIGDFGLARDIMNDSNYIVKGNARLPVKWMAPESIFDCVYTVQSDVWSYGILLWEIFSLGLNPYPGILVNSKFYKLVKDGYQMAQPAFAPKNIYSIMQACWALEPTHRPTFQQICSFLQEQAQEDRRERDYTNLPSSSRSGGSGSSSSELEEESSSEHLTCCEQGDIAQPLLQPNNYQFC
T2 sequence (P10721 26-976): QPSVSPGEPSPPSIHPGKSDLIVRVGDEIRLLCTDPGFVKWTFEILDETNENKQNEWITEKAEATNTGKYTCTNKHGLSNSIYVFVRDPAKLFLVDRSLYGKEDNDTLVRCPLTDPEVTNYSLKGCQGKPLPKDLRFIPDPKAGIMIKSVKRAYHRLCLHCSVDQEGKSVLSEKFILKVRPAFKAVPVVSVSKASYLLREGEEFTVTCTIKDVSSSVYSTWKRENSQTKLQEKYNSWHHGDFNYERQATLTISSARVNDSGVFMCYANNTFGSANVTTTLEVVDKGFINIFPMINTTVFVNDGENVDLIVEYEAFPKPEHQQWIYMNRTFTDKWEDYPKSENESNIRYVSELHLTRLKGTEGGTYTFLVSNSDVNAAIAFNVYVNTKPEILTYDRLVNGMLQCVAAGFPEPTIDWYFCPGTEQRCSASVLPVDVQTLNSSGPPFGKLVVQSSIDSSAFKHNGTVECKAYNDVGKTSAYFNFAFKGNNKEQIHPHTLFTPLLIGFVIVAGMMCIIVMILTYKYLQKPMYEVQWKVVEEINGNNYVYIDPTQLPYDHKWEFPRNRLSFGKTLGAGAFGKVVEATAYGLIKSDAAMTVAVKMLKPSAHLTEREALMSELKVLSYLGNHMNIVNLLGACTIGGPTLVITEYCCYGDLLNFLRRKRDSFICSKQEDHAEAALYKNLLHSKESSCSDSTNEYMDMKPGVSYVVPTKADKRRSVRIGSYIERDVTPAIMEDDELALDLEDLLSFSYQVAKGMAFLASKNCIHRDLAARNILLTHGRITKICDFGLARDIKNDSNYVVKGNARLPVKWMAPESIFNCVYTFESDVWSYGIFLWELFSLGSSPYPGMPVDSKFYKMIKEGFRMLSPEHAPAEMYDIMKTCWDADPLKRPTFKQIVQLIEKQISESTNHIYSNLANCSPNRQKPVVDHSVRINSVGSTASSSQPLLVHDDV
T3 sequence (P16234 24-1089): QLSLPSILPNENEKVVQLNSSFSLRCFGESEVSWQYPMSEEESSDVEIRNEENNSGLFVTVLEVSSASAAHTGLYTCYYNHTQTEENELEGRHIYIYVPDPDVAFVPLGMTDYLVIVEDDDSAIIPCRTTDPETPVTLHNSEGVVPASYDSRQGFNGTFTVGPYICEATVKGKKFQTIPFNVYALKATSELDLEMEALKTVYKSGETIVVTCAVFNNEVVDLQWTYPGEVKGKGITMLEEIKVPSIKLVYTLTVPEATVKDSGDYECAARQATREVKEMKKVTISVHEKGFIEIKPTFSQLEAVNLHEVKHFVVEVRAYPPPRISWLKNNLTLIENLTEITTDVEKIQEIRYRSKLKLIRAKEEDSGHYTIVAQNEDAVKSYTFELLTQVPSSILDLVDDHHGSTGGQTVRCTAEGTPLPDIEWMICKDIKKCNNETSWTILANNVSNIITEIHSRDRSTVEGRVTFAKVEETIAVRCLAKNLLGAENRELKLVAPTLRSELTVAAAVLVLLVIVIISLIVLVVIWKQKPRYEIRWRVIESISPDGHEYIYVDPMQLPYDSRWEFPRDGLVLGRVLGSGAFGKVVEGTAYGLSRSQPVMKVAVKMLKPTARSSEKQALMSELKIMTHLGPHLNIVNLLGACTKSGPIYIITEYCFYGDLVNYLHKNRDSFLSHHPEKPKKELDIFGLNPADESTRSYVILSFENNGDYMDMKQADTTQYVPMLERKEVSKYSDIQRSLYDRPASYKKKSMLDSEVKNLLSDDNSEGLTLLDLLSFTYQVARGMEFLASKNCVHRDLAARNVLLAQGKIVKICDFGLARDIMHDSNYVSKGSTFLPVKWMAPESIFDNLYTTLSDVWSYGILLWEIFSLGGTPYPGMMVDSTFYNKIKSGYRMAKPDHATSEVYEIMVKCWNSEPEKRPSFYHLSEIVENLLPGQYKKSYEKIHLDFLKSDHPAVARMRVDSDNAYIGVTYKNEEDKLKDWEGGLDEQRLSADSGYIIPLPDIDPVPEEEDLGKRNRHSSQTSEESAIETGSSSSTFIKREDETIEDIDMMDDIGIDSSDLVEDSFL

Structure (SMILES)	IC50 (CSF-1R)	IC50 (wtKIT [1])	IC50 (PDGFRα)	MDCK-BCRP: Efflux Ratio [2]	MDCK-BCRP: Papp A-B [2]	IC50 (wtKIT [3])	Solubility (μM) (Kinetic solubility assay)
COC(=O)N1CC(c2nc(-c3ccc(C)c(NC(=O)c4cnn5cc(Br)ccc45)c3)no2)C1 [Compound I-312]	≤ 50 nM	≤ 50 nM	500 to 5000 nM	1.42	13.3 10^−6 cm/s		**** (a solubility less than or equal to 2 μM)
Cc1ccc(-c2noc([C@H]3C[C@@H]3F)n2)cc1NC(=O)c1cnc2cc(N3CCCC3)ccn12 [Compound I-365]	≤ 50 nM	≤ 50 nM	≤ 50 nM	1.21	4.73 10^−6 cm/s		*** (a solubility greater than 2 μM and less than or equal to 10 μM)
COC1(C(F)F)CC(c2nc(-c3ccc(C)c(NC(=O)c4cnc5ccccn45)c3)no2)C1 (stereo not shown) [Compound I-325]	≤ 50 nM	≤ 50 nM	50 to 500 nM	1.39	11.4 10^−6 cm/s		**** (a solubility less than or equal to 2 μM)
Cc1ccc(-c2noc(C3CCC(=O)N3C)n2)cc1NC(=O)c1cnc2ccccn12 (racemic) [Compound I-326]	500 to 5000 nM	50 to 500 nM	5000 to 30000 nM	28.3	1.07 10^−6 cm/s		* (a solubility greater than 50 μM)
COC(=O)Cc1nc(-c2ccc(C)c(NC(=O)c3cnc4ccccn34)c2)no1 [Compound I-321]	50 to 500 nM	≤ 50 nM	500 to 5000 nM	3.4	4.73 10^−6 cm/s		**** (a solubility less than or equal to 2 μM)
Cc1ccc(-c2noc(C3CCC(F)C3)n2)cc1NC(=O)c1cnc2ccccn12 (racemic) [Compound I-318]	≤ 50 nM	≤ 50 nM	50 to 500 nM	0.93	13.9 10^−6 cm/s		*** (a solubility greater than 2 μM and less than or equal to 10 μM)
CCS(=O)(=O)N1CC[C@@H]1c1nc(-c2ccc(C)c(NC(=O)c3cnc4ccccn34)c2)no1 [Compound I-234]	≤ 50 nM	≤ 50 nM	50 to 500 nM			50 to 500 nM	** (a solubility greater than 10 μM and less than or equal to 50 μM)

More lines, main results first:

IC50 (CSF-1R)	IC50 (wtKIT [1])	IC50 (PDGFRα)	MDCK-BCRP: Efflux Ratio [2]	MDCK-BCRP: Papp A-B [2]	IC50 (wtKIT [3])	Structure (SMILES)	Solubility (μM) (Kinetic solubility assay)
≤ 50 nM	≤ 50 nM	500 to 5000 nM	2.82	7.51 10^−6 cm/s		Cc1ccc(-c2noc(C34CC(F)(C3)C4)n2)cc1NC(=O)c1cnc2ccccn12 [Compound I-392]	*** (a solubility greater than 2 μM and less than or equal to 10 μM)
500 to 5000 nM	≤ 50 nM	5000 to 30000 nM			50 to 500 nM	COC(=O)CS(=O)(=O)N1CC(c2nc(-c3ccc(C)c(NC(=O)c4cnc5ccccn45)c3)no2)C1 [Compound I-236]	*** (a solubility greater than 2 μM and less than or equal to 10 μM)
50 to 500 nM	≤ 50 nM	500 to 5000 nM	1.28	0.17 10^−6 cm/s		Cc1ccc(-c2noc(C3CC(Oc4ccccc4)C3)n2)cc1NC(=O)c1cnc2ccccn12 (stereo not shown) [Compound I-347]	**** (a solubility less than or equal to 2 μM)
50 to 500 nM	≤ 50 nM	50 to 500 nM	1.09	15 10^−6 cm/s		COC12CC(c3nc(-c4ccc(C)c(NC(=O)c5cnc6ccccn56)c4)no3)(C1)C2 [Compound I-368]	**** (a solubility less than or equal to 2 μM)
≤ 50 nM	≤ 50 nM	50 to 500 nM			50 to 500 nM	Cc1ccc(-c2noc([C@@H]3CCC(C)(C)N3)n2)cc1NC(=O)c1cnc2ccccn12 (racemic) [Compound I-232]	** (a solubility greater than 10 μM and less than or equal to 50 μM)
≤ 50 nM	≤ 50 nM	500 to 5000 nM	1.48	11.5 10^−6 cm/s		Cc1ccc(-c2noc(C34COC(C)(C3)C4)n2)cc1NC(=O)c1cnc2ccccn12 [Compound I-344]	*** (a solubility greater than 2 μM and less than or equal to 10 μM)
≤ 50 nM	≤ 50 nM	50 to 500 nM	1.74	7.55 10^−6 cm/s		Cc1ccc(-c2noc([C@H]3C[C@@H]3F)n2)cc1NC(=O)c1cnc2cc(Br)ccn12 [Compound I-383]	**** (a solubility less than or equal to 2 μM)
50 to 500 nM	≤ 50 nM	500 to 5000 nM	1.07	11.3 10^−6 cm/s		CCOC1CC(c2nc(-c3ccc(C)c(NC(=O)c4cnc5ccccn45)c3)no2)C1 (stereo not shown) [Compound I-309]	*** (a solubility greater than 2 μM and less than or equal to 10 μM)
50 to 500 nM	≤ 50 nM	500 to 5000 nM	1.35	8.71 10^−6 cm/s		Cc1ccc(-c2noc(CC3CCCOC3)n2)cc1NC(=O)c1cnc2ccccn12 (racemic) [Compound I-362]	*** (a solubility greater than 2 μM and less than or equal to 10 μM)
50 to 500 nM	≤ 50 nM	500 to 5000 nM				O=C(Nc1cc(-c2noc([C@H]3CC(F)(F)CN3)n2)ccc1Cl)c1cnc2ccccn12 [Compound I-192]	**** (a solubility less than or equal to 2 μM)
